Holding throughout (type): ADME, organism-based
Data set [1] is described as follows: AUC (0 to time) in rat at 10 mg/kg, po. Details: dose 10 mg/kg, route oral. To be noted: plasma.
A short description of data set [2]: Tmax in rat at 10 mg/kg, po. Also on record: dose 10 mg/kg, route oral. To be noted: in vivo.
The nature of data set [3]: Cmax in rat at 10 mg/kg, po. Details: dose 10 mg/kg, route oral. To be noted: in vivo.
The test system of a further data set is Plasma. Put plainly: Drug uptake in rat plasma at 10 mg/kg, po. Also on record: dose 10 mg/kg, route oral. To be noted: in vivo.
Data set [4] is described as follows: Ratio of drug level in brain to plasma in rat at 10 mg/kg, po. Also on record: dose 10 mg/kg, route oral.
Data set [5] can be described thus: Oral bioavailability in rat at 10 mg/kg, po. To be noted: in vivo.
The test system of a further data set is Brain. As to the kind of experiment: Drug uptake in rat brain at 10 mg/kg, po. Also on record: dose 10 mg/kg, route oral. To be noted: in vivo, read-out: Drug uptake.

What is called AUC(0-t) is the area under the concentration-time curve up to a stated or last time point. A high value points to more exposure. As a reminder, the Tmax is the time from dosing to the highest level. For orientation: Cmax means the maximum level reached in the sampled fluid or tissue. The bioavailability is the share of a dose that reaches the circulation, judged against a reference dose that is usually intravenous. High values mean much systemic uptake, low ones little systemic uptake.

Compound `O=C(O)c1cc(-c2cccc(COc3ccc4c(c3)CN(C3CCCC3)C4=O)c2)ccc1Cl` showed an AUC(0-t) in data set [1] of 106 µM·h. In data set [2], the Tmax was 1.33 h. Besides, the Cmax in data set [3] is 14.4 µM. Moreover, the concentration in the data set with Plasma was found to be 12.3 µM; with Brain it was 3.8 µM. Moreover, in data set [4], the BPR was determined as 0.3. This compound also yielded a bioavailability in data set [5] of 40%.
Turning to `O=C(O)c1cc(-c2cccc(COc3ccc4c(=O)n(C5CCCC5)sc4c3)c2)ccc1Cl`, in data set [1], the AUC(0-t) came to 43.3 µM·h. In addition, the Tmax in data set [2] was 1.83 h. This compound returned a Cmax in data set [3] of 4.1 µM. Also, the concentration with Plasma is 1 µM; in the data set on Brain, 4.8 µM. Further, the BPR in data set [4] is 4.8.
Compound `Cc1c(OCc2cccc(-c3ccc(C(=O)O)cc3)c2)cc2c(c1C)C(=O)C(C1CCCC1)C2` (stereo not drawn) came in with an exposure AUC(0-t) in data set [1] of 0.281 µM·h. Further, the Tmax in data set [2] is 2 h. Moreover, the Cmax in data set [3] stood at 0.097 µM. The same compound displayed a concentration in the data set on Plasma of 0.027 µM. Moreover, the bioavailability in data set [5] turned out to be 33%.

The values above are taken from ChEMBL document CHEMBL1649085.
